Experimental data as given in patent US6855801B1, “Peptides modulating activities of heparin other glycosaminoglycans or proteoglycans” (Thomas Jefferson University, priority 1999, dated 2005).
Several values for one entry are separate records, joined by “and”; a condition that tells them apart may be missing. Identical values can stand only once. Like-named read-outs stand apart in the source and are kept apart here.

Tests used:
Lovenox = assay: Reversal of anti-Factor Xa activity in vitro (Stachrom Heparin chromogenic assay), Lovenox; format: biochemical, human; conditions: for Percent Reversal of anti-Factor Xa Activity, Lovenox: 0.5 U/ml anti-Factor Xa activity
Description: (§1) Solutions of Lovenox, Orgaran, or unfractionated heparin (Sigma) were prepared in 0.32% sodium citrate or in normal human plasma to contain 0.5 U/ml anti-FXa activity. Calibrations were made against the standards provided by the Stachrom Heparin (Diagnostica Stago) assay kit. The heparin/ATIII complex was allowed to form at 37° C. for 2 minutes, peptide was added, the mixture was incubated for an additional 1-5 minutes, and then Factor Xa was added, and finally the color reagent, for one minute, and the absorbance was read at 405 nm. The increase in absorbance from the heparinized control to the test sample was divided by the difference in A405 between the heparinized control and the control without heparin to obtain the % reversal.

Orgaran = assay: Reversal of anti-Factor Xa activity in vitro (Stachrom Heparin chromogenic assay), Orgaran; format: biochemical, human; conditions: for Percent Reversal of anti-Factor Xa Activity, Orgaran: 0.5 U/ml anti-Factor Xa activity
Description: as §1

unfractionated heparin [1] = assay: Reversal of anti-Factor Xa activity in vitro (Stachrom Heparin chromogenic assay), unfractionated heparin; format: biochemical, human; conditions: for Percent Reversal of anti-Factor Xa Activity, Heparin (unfractionated): 0.5 U/ml anti-Factor Xa activity
Description: as §1

unfractionated heparin [2] = assay: Reversal of anti-thrombin effects of unfractionated heparin in vitro (thrombin clotting time in plasma); format: biochemical, human; conditions: heparin 0.5 U/ml; thrombin standardized to clotting time 20-22 seconds
Description: Plasma was obtained from normal donors. Thrombin concentration (human alpha thrombin, Enzyme Research Laboratories, South Bend, Ind.) was standardized to produce a clotting time of 20-22 seconds. Heparin was added at 0.5 IU anti-thrombin activity/ml. The clotting time for heparin alone was approximately 3 minutes. To test the effects of the peptides in this system, one minute after addition of heparin to the plasma, the peptides were added in concentrations ranging from 1-200 μg/ml. After one minute, thrombin was added and the clotting time determined. The effects of the peptides were concentration dependent. The clotting time was restored to normal values in all samples at the dosages shown below in Table III. The ability of the peptides to neutralize heparin inhibition of thrombin clotting time was consistent with the binding affinities shown in Table I, and with the effectiveness against low molecular weight heparin anti-Factor Xa activity in Table II.

HUVEC PGs = assay: ACE of HUVEC PGs/GAGs through peptide; format: binding, human
Description: (§2) Briefly, peptides were dissolved in 1×ACE running buffer, 50 mM sodium 3-(N-morpholino)-2-hydroxypropanesulfonate (MOPSO, Sigma)/125 mM sodium acetate, pH 7.0, and serially diluted in running buffer at 2× concentrations. Peptides were then mixed 1:1 with 2% agarose/1% CHAPS, 3-[(3-cholamidopropyl)dimethylammonio]-1-propanesulfonate, (Boehringer Mannheim, Indianapolis, Ind.), and loaded into wells of a 1% agarose gel. Radiolabeled heparin or HUVEC PGs were then loaded in a slot on the […] side of the gel, and electrophoresed through the peptide-containing wells, towards the cathode. Gels were dried and PG mobility was measured with a Phosphorimager (Molecular Dynamics, Sunnyvale, Calif.) by scanning each protein lane and determining the relative radioactivity content per. 88-μm pixel through the length of the lane. Retardation coefficient (R) measurements, binding isotherm curve fittings, and apparent Kd value determinations were calculated as detailed previously (Lee, M. K., and A. D. Lander, Proc Nat Acad Sci USA, 88:2768-2772, 1991; San Antonio, J. D., et al, Biochem, 32:47464755, 1993).
Binding analysis of peptides to enzymatically or chemically degraded PGs (see below) was carried out by ACE as detailed, except that PG samples included 6 M urea to denature any residual enzymes.
Cell Culture—HUVEC were isolated as detailed elsewhere (Gimbrone, M. A., In Progress in Hematology and Thrombosis. Vol. III. B. S. Collen, editor. W B Saunders, Philadelphia. 1-28, 1976) and were used up to passage seven. Cells were cultured on 0.2% gelatin-coated tissue culture flasks in normal culture media composed of medium 199 (Gibco BRL, Gaithersburg, Md.), 10% fetal bovine serum (FBS, Mediatech Inc.), 80 μg/ml endothelial cell growth supplement isolated from bovine hypothalami as described (Maciag, T., et al., Proc Nat Acad Sci USA, 76 (11):5674-5678, 1979), 50 μg/ml heparin (porcine intestinal mucosa, grade 1A, Sigma) 1% penicillin-streptomycin, and 0.1% fungizone.
Radiolabeling and Isolation of Total HUVEC PGs and GAGs—Exponentially growing, subconfluent HUVEC were labeled with 35μCi/ml ^35S-Na2SO4 (ICN Pharmaceuticals, Costa Mesa, Calif.) in normal culture media minus heparin for 12 h. Culture media and cell layers were harvested separately. After removal of the media, cells were washed with 2.0 ml PBS plus Ca^2+-Mg^2′. Media and rinses were pooled and brought to 6 M urea, 10 mM EDTA, 1 mM phenymethylsulfonyl fluoride (PMSF), 5 mM N-ethylmaleimide (NEM), 50 mM 6-aminocaproic acid, 5 mM benzamidine, and 1 μg/ml pepstatin A. Samples were stirred for 15 min at room temperature, then centrifuged at 10,000 rpm for 30 min to remove insoluble materials.
To the cell layer was added 2.0 ml of extraction solution, 6M urea, 100 mM NaCl, 0.2% Triton X-100, 50 mM Tris-HCl, pH 7.0, and protease inhibitors as described above. Cells were scraped off the dishes, and the extracts were pooled and stirred for 5 min at room temperature, and then centrifuged as described above.
Samples were concentrated on DEAE columns (DEAE Bio-Gel A Agarose, Bio-Rad Laboratories) equilibrated with low salt buffer, 0.1 M NaCl, 6 M urea, and 50 mM Tris-HCl, pH 7.0. Columns were rinsed with 10 ml of low salt buffer; flow through was discarded. Bound PGs/GAGs were eluted with 3 ml of high salt buffer, 1.5 M NaCl, 6 M urea, and 50 mM Tris-HCl, pH 7.0. Eluted samples were dialyzed against distilled water, lyophilized and stored at −20° C. until binding analysis.
Enzymatic Digestions of PGs—The contributions of PG GAG chain components to peptide binding affinities were assessed by selective enzymatic degradation of GAG chains prior to ACE analysis. ^35S-Na2SO4 labeled HUVEC PGs were digested with chondroitinase ABC, or heparatinase I (Seikagaku America, Ijamsville, Md.). […]

[3] = Affinity coelectrophoresis (ACE) of radiolabeled heparin through peptides; format: binding, pig; conditions: for heparin-binding affinity in words: ACE, low Mr heparin
Excerpt: Preparation of Radiolabeled Heparin—Whole heparin from pig intestinal mucosa (Sigma) was tyramine end-labeled and radiolabeled with Na^125I (Amersham, Pharmacia Biotech, Inc., Piscataway, N.J.) to an average specific activity ≅1.0×10^7 CPM/μg as described^59. Radiolabeled heparin was fractionated on Sephadex G-100 (Bio-Rad Laboratories, Hercules, Calif.) and the final ≅12% of material to elute was retained as the low Mr material of ≦6,000 (Jordan, R., D. Beeler, and R. Rosenberg, J Biol Chem, 254:2902-2913, 1979; Laurent, T. C., et al., Biochem J, 175:691-701, 1978).
as §2
Some peptides were also analyzed by ACE for heparin-binding under reducing conditions. Thus, after serial peptide dilution, β-mercaptoethanol (β-ME) was added at 5% to each peptide sample, and these were mixed 1:1 with 2% agarose/1% CHAPS/5% β-ME, and added to the ACE gel sample wells as usual.

Row | Substance | Percent Reversal of anti-Factor Xa Activity, Lovenox (Lovenox; peptide 0.6 mg/ml in plasma) [%] | Percent Reversal of anti-Factor Xa Activity, Orgaran (Orgaran; peptide 0.6 mg/ml in plasma) [%] | Percent Reversal of anti-Factor Xa Activity, Heparin (unfractionated) (unfractionated heparin [1]; peptide 0.6 mg/ml in plasma) [%] | μg peptide/ml heparinized plasma needed to normalize thrombin time (unfractionated heparin [2]) | heparin-binding affinity in words [3] | also measured
1 | (AKAAKKRA)3 (AKAAKKRAAKAAKKRAAKAAKKRA; protein fragment) [XBBBXXBX tandem repeat peptide, reversed orientation] | 93.5 | 72.0 | 94.0 | >50 μg peptide/ml heparinized plasma |  | 
2 | (ARKKAAKA)4 (ARKKAAKAARKKAAKAARKKAAKAARKKAAKA; protein fragment) [XBBBXXBX tandem repeat peptide] | 73 | 70.5 | 87.5 |  |  | Kd (HUVEC PGs; 35S-labeled secreted/total EC PGs, read-out: Kd for total (secreted) HUVEC PGs): ~300 nM; Kd for HUVEC PGs devoid of CS GAGs via chondroitinase ABC (ABC) digestion (HUVEC PGs; chondroitinase ABC digested PGs): comparable affinity; Kd (HUVEC PGs; chondroitinase ABC digested PGs, read-out: Kd for HUVEC PGs devoid of CS GAGs via chondroitinase ABC (ABC) digestion): ~300 nM; Kd (HUVEC PGs; free GAG chains of total PGs, read-out: Kd for GAG chains liberated from core protein by borohydride reduction (BH)): ~1200 nM; reduction in affinity after borohydride release of GAG chains (HUVEC PGs; free GAG chains versus intact PGs): 3 fold and 3-4 fold; Kd for HUVEC PGs devoid of HS GAGs via heparatinase I digestion (H) (HUVEC PGs; heparatinase I digested PGs): comparable affinity; Kd (HUVEC PGs; heparatinase I digested PGs, read-out: Kd for HUVEC PGs devoid of HS GAGs via heparatinase I digestion (H)): ~300 nM; Kd for HUVEC PGs devoid of HS GAGs via nitrous acid treatment (NA) (HUVEC PGs; nitrous acid degraded PGs): comparable affinity; Kd (HUVEC PGs; nitrous acid degraded PGs, read-out: Kd for HUVEC PGs devoid of HS GAGs via nitrous acid treatment (NA)): ~300 nM
3 | (ARKKAAKA)5 (ARKKAAKAARKKAAKAARKKAAKAARKKAAKAARKKAAKA; protein fragment) [XBBBXXBX tandem repeat peptide] | 81.5 | 83.0 | 94.5 | 21 μg peptide/ml heparinized plasma |  | Percent Reversal of anti-Factor Xa Activity, Lovenox (Lovenox; peptide 0.12 mg/ml in plasma): 68.5%; Percent Reversal of anti-Factor Xa Activity, Lovenox (Lovenox; peptide 0.4 mg/ml in plasma): 71.0%; Percent Reversal of anti-Factor Xa Activity, Orgaran (Orgaran; peptide 0.12 mg/ml in plasma): 75.0%; Percent Reversal of anti-Factor Xa Activity, Orgaran (Orgaran; peptide 0.4 mg/ml in plasma): 75.0%; Percent Reversal of anti-Factor Xa Activity, Heparin (unfractionated) (unfractionated heparin [1]; peptide 0.12 mg/ml in plasma): 64.5%; Percent Reversal of anti-Factor Xa Activity, Heparin (unfractionated) (unfractionated heparin [1]; peptide 0.4 mg/ml in plasma): 93.0%
4 | (ARKKPAKA)3 (ARKKPAKAARKKPAKAARKKPAKA; protein fragment) [proline in each tandem repeat in place of an alanine] | 100 | 66.5 | 99.0 |  |  | Percent Reversal of anti-Factor Xa Activity, Lovenox (Lovenox; peptide 0.12 mg/ml in plasma): 62.0%; Percent Reversal of anti-Factor Xa Activity, Lovenox (Lovenox; peptide 0.4 mg/ml in plasma): 62.5%; Percent Reversal of anti-Factor Xa Activity, Orgaran (Orgaran; peptide 0.12 mg/ml in plasma): 45.0%; Percent Reversal of anti-Factor Xa Activity, Orgaran (Orgaran; peptide 0.4 mg/ml in plasma): 67.5%; Percent Reversal of anti-Factor Xa Activity, Heparin (unfractionated) (unfractionated heparin [1]; peptide 0.12 mg/ml in plasma): 90.0%; Percent Reversal of anti-Factor Xa Activity, Heparin (unfractionated) (unfractionated heparin [1]; peptide 0.4 mg/ml in plasma): 50.0%
5 | (ARRRAARA)3 [XBBBXXBX tandem repeat peptide] | 67.5 | 67.0 | 57.5 |  |  | 
6 | AAARRARAAAARAKA |  |  |  |  |  | decrease in heparin-binding affinity versus native mouse SG peptide ([3]; modified sequence versus YPARRARYQWVRCKP): 350 fold
7 | AKKARA |  |  |  |  | do not bind heparin with a measurable affinity | 
8 | AKKARAAKKARA [(AKKARA)2, XBBXBX tandem repeat peptide] | 61.5 | 37.0 | 67.0 | >50 μg peptide/ml heparinized plasma | weak | 
9 | AKKARAAKKARAAKKARAAKKARA [(AKKARA)4, XBBXBX tandem repeat peptide] | 73 | 75 | 99 | 10 μg peptide/ml heparinized plasma | moderate | 
10 | AKKARAAKKARAAKKARAAKKARAAKKARA [(AKKARA)5, XBBXBX tandem repeat peptide] |  |  |  |  | strong | 
11 | ARKKAAKA |  |  |  |  | do not bind heparin with a measurable affinity | 
12 | ARKKAAKAARKKPAKAARKKAAKA | 83.0 | 67.0 | 57.5 |  |  | 
13 | YPARRARYQWVRAKP [murine serglycin, cysteine replaced with alanine] | 0 | 2.0 | 25.0 |  | negligible | 
14 | YPTQRARYQWVRCNP | 0 | 5 | 90 | 100 μg peptide/ml heparinized plasma |  | effectiveness against Lovenox / low molecular weight heparin in vitro, in words (Lovenox; text summary of Table II): not against Lovenox; effectiveness against Orgaran in vitro, in words (Orgaran; text summary of Table II): highly effective; effectiveness against UFH / heparin in vitro, in words (unfractionated heparin [1]; text summary of Table II): highly effective
